Results on five molecules are retold here after ChEMBL document CHEMBL4266048, “Halogenated Meroditerpenoids from a South Pacific Collection of the Red Alga Callophycus serratus” (J Nat Prod, 2018).

Each structure is given as a SMILES string. Active and inactive are the calls of the source. The calls are words filed in the database; no cut-off is given here.

This assay concerns HL-60. Kind of assay: Cytotoxicity against human HL60 cells after 48 hrs by MTT assay. The class given is functional, cell-based. The settings on record: for IC50: HL-60, 48 h.

For the molecule `C=C1CC[C@@H](Br)C(C)(C)[C@H]1CC[C@@]1(C)[C@H](Cc2cc(Br)ccc2O)/C(=C/I)CC[C@@H]1Br`, the IC50 is 5.1 µM.
The molecule `CC1=C2Cc3cc(ccc3O)C(=O)OC(C)(C)[C@H](Br)CC[C@]3(C)O[C@H]3C[C@]2(C)[C@@H](Br)CC1` [BROMOPHYCOLIDE T] displayed an IC50 of 6 µM.
Still for that read-out and setting: for `CC1=C2Cc3cc(ccc3O)C(=O)O[C@H](C(C)(C)Br)CC[C@](C)(O)[C@H](Br)CC[C@]2(C)[C@@H](Br)CC1` the value was 6.2 µM; for `CC[C@H](/C=C(/C)[C@@H]1C[C@@H](OC)C[C@H](O)C(C)(C)[C@@]2(O)O[C@@H](C[C@@H](OC)[C@H](O)C(=O)O1)C[C@@H](OC)[C@H]2O)CO`, 10 µM.
As for `C=C1CC=CC(C)(C)[C@H]1CC[C@@]1(C)[C@H](Cc2cc(Br)ccc2O)/C(=C/I)CC[C@@H]1Br`, the outcome was inactive.
